Laboratory results reported in US12447137B2, “Composition for prevention, amelioration, or treatment of cancer” (EWHA UNIVERSITY—INDUSTRY COLLABORATION FOUNDATION, priority 2019, dated 2025).

Experiments:
[1] = tested on: p-AMPK (Thr172); assay: AMPK activation by p-AMPK (Thr172) Western blot in gastric cancer cell lines; format: cell-based, human; details: 10 μM, 12 hours, compared to untreated group
Experimental: (§1) [3-2] The three breast cancer cell lines (4T1, BT549, and MDA-MB-231) of Experimental Method 1 were treated with each of the compound of Production Example 6 and 13 compounds, including the compounds of Production Examples 1 to 5 and 8 to 15 having a similar structure (YE-01, 02, 03, 04, 05, 08, 09, 10, 11, 12, 13, 14 and 15), at a concentration of 10 μM, and then cultured for 24 hours. In addition, each of two types of gastric cancer cell lines, brain cancer cell lines and pancreatic cancer cell lines was treated with the compound of Production Example 6 or the compound of Production Example 8 having a similar structure at a concentration of 10 μM and then cultured for 12 hours. Thereafter, the cells were harvested and lysed in RIPA buffer, and the protein was electrophoresed by SDS-PAGE, and then the expression level of the protein was analyzed using antibodies specific for AMPK and phospho-AMPK (Thr172). GAPDH or β-actin was used as a loading control for protein quantification.

[2] = tested on: p-AMPK (Thr172); assay: AMPK activation by p-AMPK (Thr172) Western blot in pancreatic cancer cell lines; format: cell-based, human; details: 10 μM, 12 hours, compared to untreated group
Experimental: as §1

[3] = tested on: p-AMPK (Thr172); assay: AMPK activation by p-AMPK (Thr172) Western blot in brain cancer cell lines; format: cell-based, human; details: 10 μM, 12 hours, compared to untreated group
Experimental: as §1

[4] = tested on: MDA-MB-231 cell line; assay: Cell viability assay (WST-1); format: cell-based; details: Homo sapiens; MDA-MB-231, 10 μM, 24 hours; FIG. 3A; read-out: cancer cell viability inhibited
Experimental: (§2) [4-1-1] The breast cancer cell line of Experimental Method 1 was treated with 5-aminoimidazole-4-carboxamide ribonucleotide (AICAR) (which is not the compound of Production Example 6) or the compound of Production Example 6 at a concentration of 0 to 30 μM, and then cultured for 24 hours, 48 hours and 72 hours. Thereafter, the cultured cells were treated with WST-1 reagent, and then the absorbance at a wavelength of 450 nm was measured. Here, the WST-1 reagent allows the cell viability to be measured by changing the color of the culture medium depending on the level of the mitochondrial dehydrogenase present in the cell.
(§3) [4-1-2] The breast cancer cell line 4T1, BT549 or MDA-MB-231 of Experimental Method 1 was treated with each of the compound of Production Example 6 and 13 compounds, including the compounds of Production Examples 1 to 5 and 8 to 15 having a similar structure (YE-01, 02, 03, 04, 05, 08, 09, 10, 11, 12, 13, 14 and 15), at a concentration of 0 to 50 μM, and then cultured for 24 hours. Each of three types of gastric cancer cell lines, brain cancer cell lines and pancreatic cancer cell lines was treated with the compound of Production Example 6 or the compound of Production Example 8 having a similar structure at a concentration of 0 to 50 μM, and then cultured for 24 hours. Thereafter, the cultured cells were treated with WST-1 reagent according to the manufacturer's instruction, and after a certain time, the absorbance at a wavelength of 450 nm was measured. Here, the WST-1 reagent allows the cell viability to be measured by changing the color of the culture medium depending on the level of the mitochondrial dehydrogenase present in the cell.

[5] = tested on: BT549 cell line; assay: Cell viability assay (WST-1); format: cell-based; details: Homo sapiens, BT-549; BT549, 10 μM, 24 hours; FIG. 3A; read-out: cancer cell viability inhibited
Experimental: as §2, §3

[6] = tested on: 4T1 cell line; assay: Cell viability assay (WST-1); format: cell-based; details: Mus musculus; 4T1, 10 μM, 24 hours; FIG. 3A; read-out: cancer cell viability inhibited
Experimental: as §2, §3

[7] = tested on: p-AMPK (Thr172); assay: AMPK activation by p-AMPK (Thr172) Western blot in BT549 cells; format: cell-based, human; details: BT549, 10 μM, 24 hours; FIG. 3B
Experimental: (§4) [3-1] The breast cancer cell line of Experimental Method 1 above was treated with the compound of Production Example 6 at a concentration of 0 to 30 μM, and then cultured for 24 hours. Thereafter, the cells were harvested and lysed in RIPA buffer, and the protein was electrophoresed by SDS-PAGE, and then the expression level of the protein was analyzed using antibodies specific for AMPK and phospho-AMPK (Thr172). GAPDH or β-actin was used as a loading control for protein quantification.
as §1, with “In addition, each of two types of gastric cancer cell lines, brain cancer cell lines and pancreatic cancer cell lines was treated with the compound of Production Example 6 or the compound of Production Example 8 having a similar structure at a concentration of 10 μM and then cultured for 12 hours.” left out

[8] = tested on: p-AMPK (Thr172); assay: AMPK activation by p-AMPK (Thr172) Western blot in MDA-MB-231 cells; format: cell-based, human; details: MDA-MB-231, 10 μM, 24 hours; FIG. 3B
Experimental: as §4, §1

[9] = tested on: p-AMPK (Thr172); assay: AMPK activation by p-AMPK (Thr172) Western blot in 4T1 cells; format: cell-based, mouse; details: 4T1, 10 μM, 24 hours; FIG. 3B
Experimental: as §4, §1

SMILES | expression of p-AMPK [1] | expression of p-AMPK [2] | expression of p-AMPK [3] | cytotoxicity at 10 µM [4] [%] | cytotoxicity at 10 µM [5] [%] | cytotoxicity at 10 µM [6] [%] | p-AMPK level [7] | p-AMPK level [8] | p-AMPK level [9]
NC(=O)c1ncn([C@@H]2O[C@H](COP(=O)(O)O)[C@@H](O)[C@H]2O)c1N [AICAR, 5-aminoimidazole-4-carboxamide ribonucleotide, reference compound] | insignificant effect | insignificant effect | insignificant effect |  |  |  |  |  | 
COc1ccc(OC)c(/C=C/C(=O)c2cccc(NS(=O)(=O)c3ccc(Cl)cc3)c2)c1 [Production Example 8, (E)-4-chloro-N-(3-(3-(2,5-dimethoxyphenyl)acryloyl)phenyl)benzenesulfonamide] | increased | increased | increased | ≥ 50 | ≥ 50 | ≥ 50 | effectively increased | effectively increased | effectively increased
